This is an account of results in patent US20020122768A1, “Stable radiopharmaceutical compositions and methods for preparation thereof” (priority 2000, published 2002).

Type in all cases: physicochemical
Data set [1] can be described thus: Solution stability of ^90Y-A at room temperature, RCP by radio-HPLC. The note with it: for RCP (%) change: ^90Y-A, t = 0 h to last time point. The method, then:
The advantage of using HPLC is that radio-impurities caused by radiolytic degradation can be separated from the radiopharmaceutical under optimized chromatographic conditions.
The initial RCP of a radiopharmaceutical is largely dependent on radiolabeling conditions such as pH, heating temperature and time. Once a radiopharmaceutical is prepared in high yield, the stability of the radiopharmaceutical composition is measured by the` RCP change of the radiopharmaceutical over a certain period of time.
Analytical Methods. HPLC method 1 used a HP-1100 HPLC system with a UV/visible detector (λ=220 nm), an IN-US radio-detector, and a Zorbax C18 column (4.6 mm×250 mm, 80 Å pore size).
The ITLC method used Gelman Sciences silica-gel ITLC paper strips and 1:1 mixture of acetone and saline as eluant.
(§1) The reaction mixture was heated at 100° C. for 10 min. A sample of the resulting solution was first diluted 20-fold with 2 mM DTPA solution (pH=5), and was then analyzed by HPLC (Method 1, injection volume=1-2 μL) and ITLC. […] The resulting solution was kept at room temperature for 6 days.
as §1, §1
The reaction mixture was heated at 100° C. for 10 min. A sample of the resulting solution was first diluted 20-fold with 2 mM DTPA solution (pH=5), and was then analyzed by HPLC (Method 1, injection volume 1-2 μL) and ITLC. […] The resulting solution was kept at room temperature for 7 days.
(§2) The reaction mixture was heated at 100° C. for 10 min. A sample of the resulting solution was first diluted 20-fold with 2 mM DTPA solution (pH=5), and was then analyzed by HPLC (Method 1, injection volume=1-2 μL) and ITLC. […] The resulting solution was kept at room temperature for 7 days.
as §2, §2

A short description of data set [2]: Solution stability of ^177Lu-C at −78° C., RCP by radio-HPLC. The note with it: ^177Lu-C prepared using 2 mg GA, degassed, second stabilizer (20 mg AA, 20 mg DSA, 10 mg 2,3,4-THBA, 10 mg 3,4,5-THBA) added post-labeling.
Assay in data set [3]: as above
As to conditions: for RCP (%) t = 0 / RCP (%) t = 3 days / RCP (%) t = 7 days / RCP (%) change: ^177Lu-C prepared using 2 mg GA; for RCP (%) t = 0 / RCP (%) t = 3 days / RCP (%) t = 7 days: degassed, second stabilizer (20 mg AA, 20 mg DSA, 10 mg 2,3,4-THBA, 10 mg 3,4,5-THBA) added post-labeling; for RCP (%) change: second stabilizer added post-labeling, t = 0 to 7 days; for stabilization compared with AA and DSA: ^177Lu-C, second stabilizer. The method, then:
The integrity of a radiopharmaceutical is measured by the radiochemical purity (RCP) of the radiolabeled compound using ITLC or more preferably HPLC. The advantage of using HPLC is that radio-impurities caused by radiolytic degradation can be separated from the radiopharmaceutical under optimized chromatographic conditions. […] The radiopharmaceutical compositions of this invention are effective in maintaining the long-term stability of samples that have been frozen, thawed, and re-tested periodically for 7 days.
The initial RCP of a radiopharmaceutical is largely dependent on radiolabeling conditions such as pH, heating temperature and time. Once a radiopharmaceutical is prepared in high yield, the stability of the radiopharmaceutical composition is measured by the` RCP change of the radiopharmaceutical over a certain period of time. For comparison purposes, sodium gentisate or sodium ascorbate was often used as the reference since they have been used in various radiopharmaceutical formulations.
HPLC method 3 used a HP-1100 HPLC system with a UV/visible detector (λ=220 nm), an IN-US radio-detector, and a Zorbax C18 column (4.6 mm×250 mm, 80 Å pore size). The flow rate was 1 mL/min with a gradient mobile phase starting from 90% solvent A (0.025 M ammonium acetate buffer, pH 6.8) and 10% solvent B (acetonitrile) at 0 min to 88% solvent A and 12% solvent B at 18 min, followed by an isocratic wash using 40% of solvent A and 60% solvent B from 19 to 25 min.
The ITLC method used Gelman Sciences silica-gel ITLC paper strips and 1:1 mixture of acetone and saline as eluant. By this method, the radiolabeled compounds migrate to the solvent front while [^90Y]/^177Lu]colloid and [^90Y]/^177Lu]acetate remain at the origin.
(§3) The 0.5 M ammonium acetate buffer (pH 8.0) was first degassed under vacuum for 1-2 min. COMPOUND C and gentisic acid (sodium salt, GA) were dissolved in the degassed buffer to give a concentration of 100 μg/mL for COMPOUND C and 2 mg/mL for GA. The resulting solution was immediately degassed under vacuum for another 1-2 min. To a clean sealed 5 mL vial was added 1.0 mL of the degassed 0.5 M ammonium acetate buffer (pH 8.0) containing 100 μg COMPOUND C and 2 mg GA. The solution was degassed again under vacuum. Upon addition of ˜20 μL of ^177LuCl3 solution (˜20 mCi) in 0.05 N HCl, the reaction mixture was heated at 100° C. for 5 min. After cooling to room temperature, a sample of the resulting solution was analyzed by HPLC (Method 3, injection volume=5 μL) and ITLC. […] To the solution above was added 0.5 mL of sodium ascorbate solution (40 mg/mL in 0.5 M ammonium acetate buffer, pH=7.4). The resulting mixture was then kept in a dry-ice box (−78° C.) for 7 days. Samples were analyzed at t=0, 3 and 7 days.
as §3, with “COMPOUND” for “The 0.5 M ammonium acetate buffer (pH 8.0) was first degassed under vacuum for 1-2 min. COMPOUND”, “1.0 μL” for “1.0 mL”, “of 2,3,4-THBA” for “of sodium ascorbate”, “solution (20” for “solution (40”
COMPOUND C and gentisic acid (sodium salt, GA) were dissolved in the degassed buffer to give a concentration of 100 μg/mL for COMPOUND C and 2 mg/mL for GA. The resulting solution was immediately degassed under vacuum for another 1-2 min. […]

Where [4] appears, read: ^90Y-A (~20 mCi), 10 mg stabilizer, room temperature.
Setting [5] is: 10 mg stabilizer, room temperature.
Where [6] appears, read: ^90Y-A (~20 mCi), 2 mg stabilizer, room temperature.

On to 2,4-disulfonatobenzeneamine [DSA], for which, in data set [1] (setting [4]), the “RCP (%) t = 0 h” value was 92.2%, the “RCP (%) t = 24 h” value turned out to be 89.3%, the “RCP (%) t = 72 h” value stood at 82.8% and the “RCP (%) t = 148 h” value is given as 80.5%. For the same compound, the “RCP (%) change” value in data set [1] (setting [5]) turned out to be 11.7%. Moreover, in data set [2], the “RCP (%) t = 1 day” value came out at 97.4%. In data set [3], the “RCP (%) t = 0” value is 97.4%, the “RCP (%) t = 3 days” value is 95.9%, the “RCP (%) t = 7 days” value was determined as 93.0% and the “RCP (%) change” value is listed as 4.4%.
With `O=C(O)c1ccc(O)c(O)c1O` [2,3,4-THBA, 2,3,4-trihydroxybenzoic acid], the “RCP (%) t = 1 day” value in data set [2] worked out at 96.6%. For the same compound, in data set [3], the “RCP (%) t = 0” value is given as 97.4%, the “RCP (%) t = 3 days” value was determined as 96.5%, the “RCP (%) t = 7 days” value was 95.4% and the “RCP (%) change” value came to 2.0%. Further, in data set [3], the “stabilization compared with AA and DSA” value is recorded as “better stabilization”.
Consider `O=C(O)c1cc(O)c(O)c(O)c1` [3,4,5-THBA, 3,4,5-trihydroxybenzoic acid], for which, in data set [1] (setting [6]), the “RCP (%) t = 0 h” value is on record as 95.3%, the “RCP (%) t = 24 h” value stood at 89.3%, the “RCP (%) t = 48 h” value is on record as 80.6% and the “RCP (%) t = 120 h” value turned out to be 74.3%. The “RCP (%) t = 144 h” value in data set [1] (setting [6]) stood at 73.4%. Moreover, in data set [1] (setting [4]), the “RCP (%) t = 0 h” value amounted to 93.3%, the “RCP (%) t = 24 h” value is 92.4%, the “RCP (%) t = 72 h” value is 88% and the “RCP (%) t = 148 h” value is reported as 79.5%. Besides, the “stabilization compared with GA” value in data set [1] (^90Y-A at room temperature, 2 mg stabilizer) is “better stabilizers than GA”. In addition, the “RCP (%) change” value in data set [1] (setting [5]) was 13.8%. In data set [2], the “RCP (%) t = 1 day” value is 97.9%. Also, in data set [3], the “RCP (%) t = 0” value was determined as 97.2%, the “RCP (%) t = 3 days” value amounted to 96.7%, the “RCP (%) t = 7 days” value came to 95.0% and the “RCP (%) change” value is reported as 2.2%. Besides, the “stabilization compared with AA and DSA” value in data set [3] is “better stabilization”.
